Test results: US20090311344A1, “Dosing Regimen” (priority 2008, published 2009)

Experiment: Multiple dose study in cancer subjects: treatment-emergent (serious) adverse events
Method: 46 subjects with cancer receiving platinum-based therapies were enrolled into 3 cohorts (N=16 in Cohort 1, 14 in Cohort 2, and 16 in Cohort 3). The subjects received the TPO mimetic peptide compound or placebo within 2 hours prior to the platinum-based chemotherapy on Day 1 of the first 2 cycles with a 21-day interval between each cycle. In addition to the Day 1 administration, gemcitabine administration was permitted on Day 8 of each cycle. Other chemotherapy medications were limited to dosing on Day 1 of each cycle only. Subjects were followed up for a total of 4 cycles of chemotherapy. Chemotherapy regimen continued beyond the first 4 cycles as per standard of care therapy. In the first cohort, 12 subjects received 1.5 μg/kg the TPO mimetic peptide compound and 4 subjects received placebo. In the second cohort 10 subjects received 3.0 μg/kg the TPO mimetic peptide compound and 4 subjects received placebo. In the third cohort, 12 subjects received 2.25 μg/kg the TPO mimetic peptide compound and 4 subjects received placebo. […] Therefore, a third cohort at a lower dose (2.25 μg/kg) was added to collect additional safety, tolerability, PD, and PK data.

## Methoxypolyethyleneglycol20000-propionyl-L-Isoleucyl-L-Glutamyl-Glycyl-L-Prolyl-L-Threonyl-L-Leucyl-L-Arginyl-L-Glutaminyl-L-2-Naphthylalanyl-L-Leucyl-L-Alanyl-L-Alanyl-L-Arginyl-Sarcosyl-Ne-(methoxypolyethyleneglycol20000-propionyl-L-Isoleucyl-L-Glutamyl-Glycyl-L-Prolyl-L-Threonyl-L-Leucyl-L-Arginyl-L-Glutaminyl-L-2-Naphthylalanyl-L-Leucyl-L-Alanyl-L-Alanyl-L-Arginyl-Sarcosyl-)-Lysinamide [TPO mimetic peptide compound]
1.5 ug/kg, n of N = 12
  Adverse event: Abdominal pain: 2
  Adverse event: Acute myocardial infarction: 1
  Adverse event: Alanine aminotransferase increased: 0
  Adverse event: Alopecia: 2
  Adverse event: Anemia: 7
  Adverse event: Anorexia: 5
  Adverse event: Anxiety: 1
  Adverse event: Arthralgia: 0
  Adverse event: Aspartate aminotransferase increased: 0
  Adverse event: Atrial fibrillation: 1
  Adverse event: Azotaemia: 0
  Adverse event: Blood and lymphatic system disorders: 8
  Adverse event: Blood creatinine increased: 1
  Adverse event: C-reactive protein increased: 0
  Adverse event: Cancer pain: 1
  Adverse event: Cardiac disorders: 3
  Adverse event: Cardiac failure: 1
  Adverse event: Chills: 0
  Adverse event: Confusional state: 0
  Adverse event: Constipation: 3
  Adverse event: Cough: 0
  Adverse event: Dehydration: 0
  Adverse event: Dermatitis acneiform: 0
  Adverse event: Diabetes mellitus non-insulin-dependent: 1
  Adverse event: Diarrhea: 2
  Adverse event: Dizziness: 0
  Adverse event: Dry skin: 0
  Adverse event: Dyspepsia: 0
  Adverse event: Dyspnoea: 1
  Adverse event: Ear and labyrinth disorders: 0
  Adverse event: Epistaxis: 0
  Adverse event: Eructation: 0
  Adverse event: Fatigue: 5
  Adverse event: Febrile neutropenia: 0
  Adverse event: Folliculitis: 1
  Adverse event: Gastrointestinal disorders: 7
  Adverse event: General disorders and administration site conditions: 7
  Adverse event: General physical health deterioration: 0
  Adverse event: Haematocrit decreased: 0
  Adverse event: Headache: 1
  Adverse event: Hemorrhoids: 1
  Adverse event: Hepatobiliary disorders: 0
  Adverse event: Hiccups: 1
  Adverse event: Hyperbilirubinaemia: 0
  Adverse event: Hypersensitivity: 0
  Adverse event: Hypertension: 0
  Adverse event: Hypoalbuminaemia: 0
  Adverse event: Hypocalcaemia: 1
  Adverse event: Hypokalaemia: 0
  Adverse event: Hypomagnesaemia: 0
  Adverse event: Hyponatraemia: 0
  Adverse event: Hypophosphataemia: 1
  Adverse event: Immune system disorders: 0
  Adverse event: Insomnia: 0
  Adverse event: Investigations: 3
  Adverse event: Leukocytosis: 0
  Adverse event: Leukopenia: 2
  Adverse event: Lung abscess: 1
  Adverse event: Lymphopenia: 2
  Adverse event: Metabolism and nutrition disorders: 5
  Adverse event: Mucosal inflammation: 0
  Adverse event: Musculoskeletal and connective tissue disorders: 0
  Adverse event: Nausea: 6
  Adverse event: Neoplasms benign, malignant and unspecified (incl cysts and polyps): 1
  Adverse event: Nervous system disorders: 3
  Adverse event: Neuropathy peripheral: 1
  Adverse event: Neutropenia: 3
  Adverse event: Oedema: 0
  Adverse event: Oedema peripheral: 1
  Adverse event: Pain: 3
  Adverse event: Pain in extremity: 0
  Adverse event: Paraesthesia: 0
  Adverse event: Peripheral motor neuropathy: 1
  Adverse event: Peripheral sensory neuropathy: 0
  Adverse event: Platelet count decreased: 1
  Adverse event: Psychiatric disorders: 1
  Adverse event: Pyrexia: 1
  Adverse event: Rash: 2
  Adverse event: Renal and urinary disorders: 0
  Adverse event: Respiratory failure: 1
  Adverse event: Respiratory, thoracic and mediastinal disorders: 2
  Adverse event: Skin and subcutaneous tissue disorders: 4
  Adverse event: Stomatitis: 2
  Adverse event: Tachycardia: 2
  Adverse event: Thrombocythaemia: 1
  Adverse event: Thrombocytopenia: 3
  Adverse event: Tinnitus: 0
  Adverse event: Vascular disorders: 0
  Adverse event: Vomiting: 2
  Adverse event: Weight decreased: 1
  Serious adverse event: Abdominal pain: 1
  Serious adverse event: Acute myocardial infarction: 1
  Serious adverse event: Anorexia: 1
  Serious adverse event: Atrial fibrillation: 1
  Serious adverse event: Blood and lymphatic system disorders: 2
  Serious adverse event: Blood creatinine increased: 0
  Serious adverse event: Cardiac disorders: 2
  Serious adverse event: Cardiac failure: 1
  Serious adverse event: Dehydration: 0
  Serious adverse event: Dyspnoea: 0
  Serious adverse event: Fatigue: 1
  Serious adverse event: Febrile neutropenia: 0
  Serious adverse event: Gastrointestinal disorders: 2
  Serious adverse event: General disorders and administration site conditions: 2
  Serious adverse event: Hyponatraemia: 0
  Serious adverse event: Investigations: 0
  Serious adverse event: Lung abscess: 1
  Serious adverse event: Metabolism and nutrition disorders: 1
  Serious adverse event: Nausea: 1
  Serious adverse event: Neutropenia: 1
  Serious adverse event: Pain: 1
  Serious adverse event: Pyrexia: 1
  Serious adverse event: Respiratory failure: 1
  Serious adverse event: Respiratory, thoracic and mediastinal disorders: 1
  Serious adverse event: Thrombocythaemia: 1
  Serious adverse event: Thrombocytopenia: 0
  Serious adverse event: Vomiting: 0
  Total no. subjects WITH ADVERSE EVENTS: 12
  Total no. subjects WITH SERIOUS ADVERSE EVENTS: 5
2.25 ug/kg, n of N = 12
  Adverse event: Abdominal pain: 1
  Adverse event: Acute myocardial infarction: 0
  Adverse event: Alanine aminotransferase increased: 0
  Adverse event: Alopecia: 3
  Adverse event: Anemia: 2
  Adverse event: Anorexia: 0
  Adverse event: Anxiety: 0
  Adverse event: Arthralgia: 0
  Adverse event: Aspartate aminotransferase increased: 0
  Adverse event: Atrial fibrillation: 0
  Adverse event: Azotaemia: 1
  Adverse event: Blood and lymphatic system disorders: 6
  Adverse event: Blood creatinine increased: 1
  Adverse event: C-reactive protein increased: 0
  Adverse event: Cancer pain: 0
  Adverse event: Cardiac disorders: 0
  Adverse event: Cardiac failure: 0
  Adverse event: Chills: 1
  Adverse event: Confusional state: 1
  Adverse event: Constipation: 2
  Adverse event: Cough: 2
  Adverse event: Dehydration: 1
  Adverse event: Dermatitis acneiform: 0
  Adverse event: Diabetes mellitus non-insulin-dependent: 0
  Adverse event: Diarrhea: 1
  Adverse event: Dizziness: 2
  Adverse event: Dry skin: 0
  Adverse event: Dyspepsia: 0
  Adverse event: Dyspnoea: 1
  Adverse event: Ear and labyrinth disorders: 0
  Adverse event: Epistaxis: 0
  Adverse event: Eructation: 1
  Adverse event: Fatigue: 1
  Adverse event: Febrile neutropenia: 1
  Adverse event: Folliculitis: 0
  Adverse event: Gastrointestinal disorders: 7
  Adverse event: General disorders and administration site conditions: 3
  Adverse event: General physical health deterioration: 1
  Adverse event: Haematocrit decreased: 1
  Adverse event: Headache: 1
  Adverse event: Hemorrhoids: 0
  Adverse event: Hepatobiliary disorders: 1
  Adverse event: Hiccups: 1
  Adverse event: Hyperbilirubinaemia: 1
  Adverse event: Hypersensitivity: 0
  Adverse event: Hypertension: 2
  Adverse event: Hypoalbuminaemia: 1
  Adverse event: Hypocalcaemia: 0
  Adverse event: Hypokalaemia: 1
  Adverse event: Hypomagnesaemia: 1
  Adverse event: Hyponatraemia: 2
  Adverse event: Hypophosphataemia: 0
  Adverse event: Immune system disorders: 0
  Adverse event: Insomnia: 1
  Adverse event: Investigations: 2
  Adverse event: Leukocytosis: 0
  Adverse event: Leukopenia: 3
  Adverse event: Lung abscess: 0
  Adverse event: Lymphopenia: 0
  Adverse event: Metabolism and nutrition disorders: 2
  Adverse event: Mucosal inflammation: 0
  Adverse event: Musculoskeletal and connective tissue disorders: 1
  Adverse event: Nausea: 2
  Adverse event: Neoplasms benign, malignant and unspecified (incl cysts and polyps): 0
  Adverse event: Nervous system disorders: 3
  Adverse event: Neuropathy peripheral: 0
  Adverse event: Neutropenia: 4
  Adverse event: Oedema: 1
  Adverse event: Oedema peripheral: 0
  Adverse event: Pain: 0
  Adverse event: Pain in extremity: 1
  Adverse event: Paraesthesia: 0
  Adverse event: Peripheral motor neuropathy: 0
  Adverse event: Peripheral sensory neuropathy: 0
  Adverse event: Platelet count decreased: 0
  Adverse event: Psychiatric disorders: 2
  Adverse event: Pyrexia: 3
  Adverse event: Rash: 0
  Adverse event: Renal and urinary disorders: 1
  Adverse event: Respiratory failure: 0
  Adverse event: Respiratory, thoracic and mediastinal disorders: 3
  Adverse event: Skin and subcutaneous tissue disorders: 3
  Adverse event: Stomatitis: 0
  Adverse event: Tachycardia: 0
  Adverse event: Thrombocythaemia: 0
  Adverse event: Thrombocytopenia: 0
  Adverse event: Tinnitus: 0
  Adverse event: Vascular disorders: 2
  Adverse event: Vomiting: 6
  Adverse event: Weight decreased: 0
  Serious adverse event: Abdominal pain: 0
  Serious adverse event: Acute myocardial infarction: 0
  Serious adverse event: Anorexia: 0
  Serious adverse event: Atrial fibrillation: 0
  Serious adverse event: Blood and lymphatic system disorders: 1
  Serious adverse event: Blood creatinine increased: 1
  Serious adverse event: Cardiac disorders: 0
  Serious adverse event: Cardiac failure: 0
  Serious adverse event: Dehydration: 1
  Serious adverse event: Dyspnoea: 1
  Serious adverse event: Fatigue: 0
  Serious adverse event: Febrile neutropenia: 1
  Serious adverse event: Gastrointestinal disorders: 1
  Serious adverse event: General disorders and administration site conditions: 0
  Serious adverse event: Hyponatraemia: 2
  Serious adverse event: Investigations: 1
  Serious adverse event: Lung abscess: 0
  Serious adverse event: Metabolism and nutrition disorders: 2
  Serious adverse event: Nausea: 0
  Serious adverse event: Neutropenia: 0
  Serious adverse event: Pain: 0
  Serious adverse event: Pyrexia: 0
  Serious adverse event: Respiratory failure: 0
  Serious adverse event: Respiratory, thoracic and mediastinal disorders: 1
  Serious adverse event: Thrombocythaemia: 0
  Serious adverse event: Thrombocytopenia: 0
  Serious adverse event: Vomiting: 1
  Total no. subjects WITH ADVERSE EVENTS: 10
  Total no. subjects WITH SERIOUS ADVERSE EVENTS: 3
3.0 ug/kg, n of N = 10
  Adverse event: Abdominal pain: 2
  Adverse event: Acute myocardial infarction: 0
  Adverse event: Alanine aminotransferase increased: 1
  Adverse event: Alopecia: 2
  Adverse event: Anemia: 1
  Adverse event: Anorexia: 2
  Adverse event: Anxiety: 0
  Adverse event: Arthralgia: 1
  Adverse event: Aspartate aminotransferase increased: 1
  Adverse event: Atrial fibrillation: 0
  Adverse event: Azotaemia: 0
  Adverse event: Blood and lymphatic system disorders: 3
  Adverse event: Blood creatinine increased: 1
  Adverse event: C-reactive protein increased: 1
  Adverse event: Cancer pain: 0
  Adverse event: Cardiac disorders: 0
  Adverse event: Cardiac failure: 0
  Adverse event: Chills: 0
  Adverse event: Confusional state: 0
  Adverse event: Constipation: 4
  Adverse event: Cough: 0
  Adverse event: Dehydration: 1
  Adverse event: Dermatitis acneiform: 0
  Adverse event: Diabetes mellitus non-insulin-dependent: 0
  Adverse event: Diarrhea: 1
  Adverse event: Dizziness: 0
  Adverse event: Dry skin: 1
  Adverse event: Dyspepsia: 0
  Adverse event: Dyspnoea: 0
  Adverse event: Ear and labyrinth disorders: 1
  Adverse event: Epistaxis: 1
  Adverse event: Eructation: 0
  Adverse event: Fatigue: 4
  Adverse event: Febrile neutropenia: 0
  Adverse event: Folliculitis: 0
  Adverse event: Gastrointestinal disorders: 6
  Adverse event: General disorders and administration site conditions: 6
  Adverse event: General physical health deterioration: 0
  Adverse event: Haematocrit decreased: 1
  Adverse event: Headache: 1
  Adverse event: Hemorrhoids: 0
  Adverse event: Hepatobiliary disorders: 0
  Adverse event: Hiccups: 0
  Adverse event: Hyperbilirubinaemia: 0
  Adverse event: Hypersensitivity: 1
  Adverse event: Hypertension: 0
  Adverse event: Hypoalbuminaemia: 0
  Adverse event: Hypocalcaemia: 0
  Adverse event: Hypokalaemia: 0
  Adverse event: Hypomagnesaemia: 0
  Adverse event: Hyponatraemia: 0
  Adverse event: Hypophosphataemia: 0
  Adverse event: Immune system disorders: 1
  Adverse event: Insomnia: 1
  Adverse event: Investigations: 4
  Adverse event: Leukocytosis: 1
  Adverse event: Leukopenia: 2
  Adverse event: Lung abscess: 0
  Adverse event: Lymphopenia: 0
  Adverse event: Metabolism and nutrition disorders: 3
  Adverse event: Mucosal inflammation: 0
  Adverse event: Musculoskeletal and connective tissue disorders: 2
  Adverse event: Nausea: 2
  Adverse event: Neoplasms benign, malignant and unspecified (incl cysts and polyps): 0
  Adverse event: Nervous system disorders: 2
  Adverse event: Neuropathy peripheral: 0
  Adverse event: Neutropenia: 3
  Adverse event: Oedema: 1
  Adverse event: Oedema peripheral: 0
  Adverse event: Pain: 0
  Adverse event: Pain in extremity: 1
  Adverse event: Paraesthesia: 1
  Adverse event: Peripheral motor neuropathy: 0
  Adverse event: Peripheral sensory neuropathy: 0
  Adverse event: Platelet count decreased: 0
  Adverse event: Psychiatric disorders: 1
  Adverse event: Pyrexia: 2
  Adverse event: Rash: 0
  Adverse event: Renal and urinary disorders: 0
  Adverse event: Respiratory failure: 0
  Adverse event: Respiratory, thoracic and mediastinal disorders: 1
  Adverse event: Skin and subcutaneous tissue disorders: 3
  Adverse event: Stomatitis: 0
  Adverse event: Tachycardia: 0
  Adverse event: Thrombocythaemia: 0
  Adverse event: Thrombocytopenia: 2
  Adverse event: Tinnitus: 1
  Adverse event: Vascular disorders: 0
  Adverse event: Vomiting: 2
  Adverse event: Weight decreased: 0
  Serious adverse event: Abdominal pain: 0
  Serious adverse event: Acute myocardial infarction: 0
  Serious adverse event: Anorexia: 0
  Serious adverse event: Atrial fibrillation: 0
  Serious adverse event: Blood and lymphatic system disorders: 0
  Serious adverse event: Blood creatinine increased: 0
  Serious adverse event: Cardiac disorders: 0
  Serious adverse event: Cardiac failure: 0
  Serious adverse event: Dehydration: 0
  Serious adverse event: Dyspnoea: 0
  Serious adverse event: Fatigue: 0
  Serious adverse event: Febrile neutropenia: 0
  Serious adverse event: Gastrointestinal disorders: 0
  Serious adverse event: General disorders and administration site conditions: 0
  Serious adverse event: Hyponatraemia: 0
  Serious adverse event: Investigations: 0
  Serious adverse event: Lung abscess: 0
  Serious adverse event: Metabolism and nutrition disorders: 0
  Serious adverse event: Nausea: 0
  Serious adverse event: Neutropenia: 0
  Serious adverse event: Pain: 0
  Serious adverse event: Pyrexia: 0
  Serious adverse event: Respiratory failure: 0
  Serious adverse event: Respiratory, thoracic and mediastinal disorders: 0
  Serious adverse event: Thrombocythaemia: 0
  Serious adverse event: Thrombocytopenia: 0
  Serious adverse event: Vomiting: 0
  Total no. subjects WITH ADVERSE EVENTS: 9
  Total no. subjects WITH SERIOUS ADVERSE EVENTS: 0
1.5, 2.25, 3.0 μg/kg
  relation of adverse events to dose: did not appear to be related to increasing doses
human, in vivo
  relatedness of all other SAEs to the compound: unrelated
One subject
  relatedness of the SAE thrombocythemia to the compound: very likely
